Holding throughout (assay type): biochemical
Test [1] concerns the target T1, VmeNucC (Vibrio metoecus, UniProt P0DUD6).
T1 construct: His8 (TEV-cleavable, vector pEV5HisTEV) (N, cleaved yes); made in house; host or cells: E. coli C43(DE3)
Put plainly: NucC assay using synthetic cA3 as activator. The note with it: FIG. 6. The method, then: FIG. 6: NucC assay using synthetic cA3 as activator. A: Selected fluorescence signal curves. B: The fluorescence intensities of measurements from 28-30 min reaction time were used for one-way ANOVA analysis. Multiplicity adjusted P values were calculated by Dunnett's multiple comparisons test (N=7). The assay was performed in duplicate. C: selected data from B with expanded y scale. ns: not significant, P value>0.05; ***: P value<0.001; ****: P value<0.0001.
(§1) All assays were performed on a FluoStar Omega plate reader (BMG Labtech) using fluorescence detection (λex/em 544/590 nm) and Corning black, non-binding half-area 96-well plates. […] Fluorescence was measured in 30 s intervals at 37° C. for up to 60 min. […] To determine limit of detection, the means of fluorescence intensities ranging between 28 and 32 min was analysed by one-way ANOVA and for multiple comparisons the Brown-Forsythe and Welch ANOVA test was applied. […] Relative activities between reaction conditions was determined by comparing the relative rates of the reactions. Rates were assumed to be proportional to the change in fluorescence signal over time and calculated from the slopes of linear regression analysis. Target specificity was analysed by extracting the time point (Tt) when the fluorescence intensity crossed a threshold value. […]

The target in a further test is T2, NucC (Vibrio metoecus, UniProt P0DUD6).
T2 construct: His8 (TEV-cleavable, vector pEV5HisTEV) (N, cleaved yes); made in house; host or cells: E. coli C43(DE3)
Put plainly: Degradation of cA3 by NucC, liquid chromatography with UV detection. The note with it: 100 μM cA3 with 0.5 μM NucC in reaction buffer for 60 min. As to the method:
LC chromatograms with UV monitoring at 254 nm showing the reaction of 100 μM cA3 with 0.5 μM NucC under assay conditions after 15 and 60 min. A reaction in which NucC had been omitted was allowed to proceed for 60 min.
Some Csx1/Csm6 family proteins have an intrinsic “ring nuclease” activity for the degradation of their cOA activator—an activity that is probably important in vivo for the control of the CRISPR mediated immune response (9). In the context of assay development however, this is an undesirable characteristic. Furthermore, it is difficult to remove this activity from Csx1/Csm6 family proteins as the activity is closely linked with cOA binding and/or with the HEPN ribonuclease activity (18, 19). To determine whether NucC degrades its cA3 activator, we incubated 100 μM cA3 with […] NucC in reaction buffer for 60 min and monitored the products by liquid chromatography and UV detection (FIG. 5) after removal of the enzyme by ultracentrifugation (MWCO 3 kDa). […] This is perhaps not surprising given that NucC is a double stranded DNase and the activator is a cyclic ribonucleotide.

The target of test [2] is T1, VmeNucC. Put plainly: Effect of ATP on NucC nuclease activity (fluorescent DNA duplex reporter). The method, then: FIG. 4: Factors influencing NucC activity. Relative activities were determined by comparing the relative increase in fluorescence signal over time. A: Effect of NaCl concentration. B: NucC activity in different buffers. C: Effect of ATP on NucC nuclease activity.
as §1, with “value. The threshold value was set to ⅛^th of the maximal measured fluorescence signal of the reference target.” for “value.”

A value given as a limit tells only on which side of the number the result lay.

T1 sequence (P0DUD6 whole entry): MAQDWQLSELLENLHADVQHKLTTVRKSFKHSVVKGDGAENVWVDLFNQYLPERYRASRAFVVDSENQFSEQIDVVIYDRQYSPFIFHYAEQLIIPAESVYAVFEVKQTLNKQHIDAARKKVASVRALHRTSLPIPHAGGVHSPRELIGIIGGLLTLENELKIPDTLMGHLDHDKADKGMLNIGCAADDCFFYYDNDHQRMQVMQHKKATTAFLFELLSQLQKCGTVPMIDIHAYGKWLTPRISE
T2 sequence (P0DUD6 whole entry): as above

Consider `Nc1ncnc2c1ncn2[C@@H]1O[C@@H]2COP(=O)(O)O[C@H]3[C@@H](O)[C@H](n4cnc5c(N)ncnc54)O[C@@H]3COP(=O)(O)O[C@H]3[C@@H](O)[C@H](n4cnc5c(N)ncnc54)O[C@@H]3COP(=O)(O)O[C@H]2[C@H]1O` [cA3, cyclic tri-adenylate], for which the “amount of synthetic cyclic nucleotide giving a clear signal” value on VmeNucC [1] is no more than 10 pM. The “depletion of cA3 by NucC” value on NucC is given as “no significant depletion”.
As to `Nc1ncnc2c1ncn2[C@@H]1O[C@H](COP(=O)(O)OP(=O)(O)OP(=O)(O)O)[C@@H](O)[C@H]1O` [ATP], the NucC activity retained on VmeNucC [2] (ATP concentration of 2 mM) is reported as 50%. Besides, the “effect of ATP on NucC” value on VmeNucC [2] (ATP concentrations above 500 μM) was “minor adverse effect”.

(Values after patent publication US20240191217A1, “CAS10-BASED ASSAY FOR NUCLEIC ACID DETECTION” (priority 2021, published 2024).)
